# Laboratory results taken from patent publication EP4800018A1, “PAN-KRAS INHIBITOR AND USE THEREOF IN MEDICINES” (Betta Pharmaceuticals Co., Ltd., priority 2023, dated 2025).
# How the values were obtained:
# [1] = tested on: KRAS-G12D mutant tumor cells AGS; assay: Cell Proliferation Inhibition Assay (AGS), Cell-titer GLO, 96 h; assay type: cell-based; conditions: Homo sapiens, AGS, 96 h, AGS cells, 96 h incubation, Cell-titer GLO; read-out: AGS(G12D)
# In short: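 Inhibition % was derived from CellTiter-Glo luminescence (max minus measured, over max minus blank) and fitted to give IC50. Cells were KRAS-G12D AGS in low-attachment wells, treated for 96 h at 37°C.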
# [2] = tested on: KRAS-G12V mutant tumor cells SW620; assay: Cell Proliferation Inhibition Assay (SW620), Cell-titer GLO, 96 h; assay type: cell-based; conditions: Homo sapiens, SW-620, 96 h, SW620 cells, 96 h incubation, Cell-titer GLO; read-out: SW620(G12V)
# In short: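 Readout: Cell-titer GLO luminescence after 96 h at 37°C, converted to percent inhibition against 0.5% DMSO and blank controls, with IC50 from curve fit. Low-attachment SW620 cultures (1×10^3 cells/well) were dosed at 10000–0.03 nM final.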
# [3] = target: T1, KRAS G12D-cRAF (Homo sapiens, UniProt P01116, G12D); assay: Cellular KRAS G12D-cRAF Binding Inhibition Assay (NanoBRET, AD293 stable cells); assay type: cell-based; conditions: 3 h incubation, read-out: NanoBRET KRAS G12D
# T1 construct: expressed in transfected cells
# In short: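 IC50 values derive from fitted % inhibition, normalised to maximum signal and medium-only blank. The read-out is NanoBRET between KRAS G12D-NanoLuc (donor) and cRAF RBD-HaloTag labelled with the 618 ligand (acceptor), in live stably transfected AD293 cells at 1×10^4/well.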
# [4] = target: T2, KRAS G12V-cRAF (Homo sapiens, UniProt P01116, G12V); assay: Cellular KRAS G12V-cRAF Binding Inhibition Assay (NanoBRET, AD293 stable cells); assay type: cell-based; conditions: 3 h incubation, read-out: NanoBRET KRAS G12V
# T2 construct: expressed in transfected cells
# In short: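 Binding measured as BRET between NanoLuc and HaloTag-bound NanoBRET 618 ligand (added overnight) in stably expressing AD293 cells. Signals were converted to percent inhibition against max and blank wells and fitted for IC50.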
# [5] = PK Study of Compounds in Rats; assay type: in vivo, Male SD rats; conditions: mean; for F: PO 10 mg/kg vs IV 1 mg/kg (n=3); for clearance / half-life / AUC(0-t) / Cmax / Vd / Tmax: male, SD, rat, whole blood; for AUC(0-t): read-out: AUC0-t; for Cmax: read-out: C0/Cmax; for Vd: read-out: Vss; for Tmax: read-out: Tmax
# Protocol: (§1) The test compound was mixed with the vehicle (10% DMSO/5% Solutol/85% physiological saline), vortexed and sonicated to prepare a clear 0.5 mg/mL intravenous injection solution. The test compound was mixed with the vehicle (20% PEG400/10% Solutol/70% pH 4.5 acetate buffer), vortexed and sonicated to prepare a clear 1 mg/mL oral solution. Male SD rats aged 6 to 7 weeks were selected and administered the test compound via intravenous (IV) and oral (PO) routes, respectively. Whole blood samples were collected at 5 min, 15 min, 30 min, 1 h, 2 h, 4 h, 7 h, and 24 h for the intravenous route, and at 15 min, 30 min, 1 h, 2 h, 4 h, 7 h, and 24 h for the oral route. Drug concentrations were analyzed by LC-MS/MS method, and pharmacokinetic parameters were calculated using Phoenix WinNonlin software (Pharsight, USA).
# [6] = PK Study of Compounds in Mice; assay type: in vivo, Female ICR mice; conditions: mean; for Cmax: read-out: C0/Cmax
# Protocol: as §1, with “0.2” for “0.5”, “Female ICR mice” for “Male SD rats”
# [7] = female, ICR, mouse, whole blood, IV 1 mg/kg (n=3)
# [8] = female, ICR, mouse, whole blood, PO 10 mg/kg (n=3)
# T2 sequence (P01116 1-188 isoform P01116-2 G12V): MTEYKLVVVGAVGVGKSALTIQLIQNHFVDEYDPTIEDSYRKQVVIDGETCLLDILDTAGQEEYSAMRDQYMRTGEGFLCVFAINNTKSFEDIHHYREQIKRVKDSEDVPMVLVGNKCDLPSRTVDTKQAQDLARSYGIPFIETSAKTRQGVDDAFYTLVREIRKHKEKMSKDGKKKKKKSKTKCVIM
# T1 sequence (P01116 1-188 isoform P01116-2 G12D): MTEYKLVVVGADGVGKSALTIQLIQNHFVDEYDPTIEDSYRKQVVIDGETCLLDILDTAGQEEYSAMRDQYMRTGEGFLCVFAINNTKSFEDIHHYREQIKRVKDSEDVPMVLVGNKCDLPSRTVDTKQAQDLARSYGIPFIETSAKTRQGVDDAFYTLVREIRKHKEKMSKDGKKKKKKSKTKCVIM
IC50 [1],IC50 [2],IC50 [3],IC50 [4],F [5],clearance ([5]; IV 1 mg/kg (n=3)),half-life ([5]; IV 1 mg/kg (n=3)),AUC(0-t) ([5]; IV 1 mg/kg (n=3)),Cmax ([5]; IV 1 mg/kg (n=3)),Vd ([5]; IV 1 mg/kg (n=3)),AUC(0-t) ([5]; PO 10 mg/kg (n=3)),Cmax ([5]; PO 10 mg/kg (n=3)),Tmax ([5]; PO 10 mg/kg (n=3)),SMILES,also measured
1.5 nM,0.9 nM,4.3 nM,16.3 nM,11.9,3.59 mL/min/kg,4.93 h,4500 ng·h/mL,4220 ng/mL,1.11 L/kg,5350 ng·h/mL,472 ng/mL,3.33 h,"CC1OCCCn2c(c3c4cc(ccc42)-c2csc(n2)CC(NC(=O)C2C4COCC42)C(=O)N2NC(C(=O)OCC(C)(C)C3)C3CC2C3)-c2cc(N3CCN(C)CC3)cnc21 [Example 192, (1R,5S,6r)-N-((1^5S,6^4S,4S,Z)-1^5,10,10-trimethyl-1^2-(4-methylpiperazin-1-yl)-5,7-dioxo-1^8,1^9-dihydro-1^5H,1^7H-8-oxa-6^2,6^3-diaza-1(13,15)-pyrido[3',2':7,8][1,5]oxazonino[5,6-a]indola-2(4,2)-thiazola-6(2,4)-bicyclo[3.1.1]heptanacycloundecaphane-4-yl)-3-oxabicyclo[3.1.0]hexane-6-carboxamide]",half-life ([5]; PO 10 mg/kg (n=3)): 5.13 h
0.37 nM,0.09 nM,2 nM,8.4 nM,32.4,2.22 mL/min/kg,7.22 h,6940 ng·h/mL,6060 ng/mL,1.08 L/kg,22500 ng·h/mL,2060 ng/mL,3.33 h,"CC1OCCCn2c(c3c4cc(ccc42)-c2csc(n2)CC(NC(=O)C2C(C)C2C)C(=O)N2NC(C(=O)OCC(C)(C)C3)C3CC2C3)-c2cc(N3CCN(C4COC4)CC3)cnc21 [Example 198, (1r,2R,3S)-N-((1^5S,6^4S,4S,Z)-1^2-(4-(oxetan-3-yl)piperazin-1-yl)-1^5,10,10-trimethyl-5,7-dioxo-1^8 ,1^9-dihydro-1^5H,1^7H-8-oxa-6^2,6^3-diaza-1(13,15)-pyrido[3',2':7,8][1,5]oxazonino[5,6-a]indola-2(4 ,2)-thiazola-6(2,4)-bicyclo[3.1.1]heptanacycloundecaphane-4-yl)-2,3-dimethylcyclopropane-1-ca rboxamide]","F ([6]; PO 10 mg/kg vs IV 1 mg/kg (n=3)): 54.0; AUC(0-t) [6, 7]: 2450 ng·h/mL; clearance [6, 7]: 5.75 mL/min/kg; half-life [6, 7]: 8.9 h; Cmax [6, 7]: 462 ng/mL; Vd ([6]; female, ICR, mouse, whole blood, IV 1 mg/kg (n=3), read-out: Vss): 4.66 L/kg; AUC(0-t) [6, 8]: 13200 ng·h/mL; Tmax [6, 8]: 2 h; Cmax [6, 8]: 1300 ng/mL"
